From ChEMBL document CHEMBL1201862, “PubChem BioAssay data set” (2004)
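Briefly, cells in 96-well plates were exposed to five compound concentrations for 48 h, and endpoints were estimated by linear interpolation. Here, GI50 denotes the concentration required for 50% inhibition of growth.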 Active and inactive are the calls of the source. Rule as the data show it: active = GI50 up to about 1.1 µM and inactive = higher.

What was measured:
Assay in all cases: DTP human tumour cell line panel, 48 h
A498 = system: A498
A549 = system: A549
ACHN = system: ACHN
CAKI-1 = system: CAKI-1
DU-145 = system: DU-145
HCT-116 = system: HCT-116
HL-60 = system: HL-60
IGROV-1 = system: IGROV-1
MCF7 = system: MCF7
OVCAR-3 = system: OVCAR-3
OVCAR-4 = system: OVCAR-4
PC-3 = system: PC-3
SF-268 = system: SF-268
SF-295 = system: SF-295
SNB-19 = system: SNB-19
SNB-75 = system: SNB-75
SR = system: SR
T47D = system: T47D
UACC-257 = system: UACC-257
SK-OV-3 = system: SK-OV-3

Measured: GI50

O=C(c1ccc([N+](=O)[O-])cc1)N1CCCC1
inactive: A498 > 100 µM | A549 > 100 µM | ACHN > 100 µM | CAKI-1 > 100 µM | DU-145 > 100 µM | HCT-116 > 100 µM | HL-60 > 100 µM | IGROV-1 > 100 µM | MCF7 > 100 µM | OVCAR-3 > 100 µM | OVCAR-4 > 100 µM | PC-3 > 100 µM | SF-268 > 100 µM | SF-295 > 100 µM | SNB-19 > 100 µM | SNB-75 > 100 µM | SR > 100 µM | T47D > 100 µM | UACC-257 > 100 µM

O=C1/C(=C/c2ccco2)N=C(c2ccccc2)N1c1ccc(S(=O)(=O)Nc2nccs2)cc1
inactive: A549 89.7 µM | ACHN 74.6 µM | CAKI-1 > 100 µM | DU-145 > 100 µM | HCT-116 > 100 µM | HL-60 89.9 µM | IGROV-1 > 100 µM | MCF7 61.4 µM | OVCAR-3 83.9 µM | OVCAR-4 69.2 µM | PC-3 86.3 µM | SF-268 > 100 µM | SF-295 > 100 µM | SK-OV-3 > 100 µM | SNB-75 > 100 µM | SR > 100 µM | T47D 80.4 µM | UACC-257 27.6 µM

Cc1n[nH]c(=O)n1N1C(=O)c2ccccc2C1=O
inactive: A498 > 100 µM | A549 > 100 µM | ACHN > 100 µM | CAKI-1 > 100 µM | DU-145 > 100 µM | HCT-116 > 100 µM | IGROV-1 > 100 µM | MCF7 > 100 µM | OVCAR-3 > 100 µM | OVCAR-4 > 100 µM | PC-3 > 100 µM | SF-295 > 100 µM | SNB-19 > 100 µM | SNB-75 26.4 µM | SR > 100 µM | T47D > 100 µM | UACC-257 > 100 µM

OC(c1cc2ccccc2o1)c1cc2ccccc2s1 (stereo unspecified)
inactive: A549 > 10 µM | ACHN > 10 µM | CAKI-1 > 10 µM | DU-145 > 10 µM | HCT-116 > 10 µM | HL-60 > 10 µM | IGROV-1 > 10 µM | MCF7 9.44 µM | OVCAR-3 > 10 µM | OVCAR-4 > 10 µM | PC-3 8.57 µM | SF-268 > 10 µM | SF-295 > 10 µM | SK-OV-3 > 10 µM | SNB-19 > 10 µM | SNB-75 > 10 µM | SR > 10 µM | T47D > 10 µM | UACC-257 > 10 µM

CC(C)(C)C1CCC2c3c([nH]c4ccccc34)C3C(=O)N(c4cccc([N+](=O)[O-])c4)C(=O)C3C2C1 (stereo unspecified)
inactive: A498 41.2 µM | A549 39.5 µM | ACHN 36.2 µM | CAKI-1 19.6 µM | DU-145 25.9 µM | HCT-116 11.6 µM | IGROV-1 19.8 µM | MCF7 32.5 µM | OVCAR-3 35.6 µM | OVCAR-4 25.5 µM | PC-3 27 µM | SF-268 21 µM | SF-295 53.7 µM | SK-OV-3 > 100 µM | SNB-19 55.8 µM | SNB-75 59.6 µM | SR 18.2 µM | T47D 28.8 µM | UACC-257 22.5 µM

CCC(c1ccccc1)c1cc(C(C)(C)C)cc(C(C)(C)C)c1O (stereo unspecified)
inactive: A498 19.7 µM | A549 16.3 µM | ACHN 18.6 µM | CAKI-1 16.2 µM | DU-145 19.1 µM | HCT-116 12.9 µM | IGROV-1 17 µM | MCF7 20.1 µM | OVCAR-3 14.2 µM | OVCAR-4 15.8 µM | PC-3 17.7 µM | SF-268 15.3 µM | SF-295 13.9 µM | SK-OV-3 14.9 µM | SNB-19 18.3 µM | SNB-75 14.2 µM | SR 31.7 µM | T47D 16.1 µM | UACC-257 15.2 µM

C/C(=C\COP(=O)(O)OP(=O)(O)O)CC/C=C(\C)CNc1ccc([N+](=O)[O-])cc1
inactive: A549 > 100 µM | ACHN > 100 µM | CAKI-1 > 100 µM | DU-145 > 100 µM | HCT-116 > 100 µM | HL-60 > 100 µM | IGROV-1 > 100 µM | MCF7 > 100 µM | OVCAR-3 > 100 µM | OVCAR-4 > 100 µM | PC-3 > 100 µM | SF-268 > 100 µM | SF-295 > 100 µM | SK-OV-3 > 100 µM | SNB-19 > 100 µM | SNB-75 > 100 µM | SR > 100 µM | T47D > 100 µM | UACC-257 71.8 µM

CC1(C)CNC(c2ccc3c(c2)Cc2cc(C4=NC(C)(C)CN4)ccc2-3)=N1
inactive: A498 77.8 µM | A549 > 100 µM | ACHN > 100 µM | CAKI-1 > 100 µM | DU-145 > 100 µM | HCT-116 32.8 µM | IGROV-1 > 100 µM | MCF7 23.3 µM | OVCAR-3 35.7 µM | OVCAR-4 32.9 µM | PC-3 39.8 µM | SF-268 34.6 µM | SF-295 > 100 µM | SK-OV-3 44.5 µM | SNB-19 35.1 µM | SNB-75 90.6 µM | SR 32.5 µM | T47D 61.2 µM | UACC-257 31 µM

CN(c1ccc(Cl)cc1)S(=O)(=O)c1ccccc1
inactive: A549 72.4 µM | ACHN > 100 µM | CAKI-1 51.3 µM | DU-145 > 100 µM | HCT-116 37.5 µM | HL-60 15 µM | IGROV-1 > 100 µM | MCF7 52.4 µM | OVCAR-3 64.3 µM | OVCAR-4 77.1 µM | PC-3 21.6 µM | SF-268 49 µM | SF-295 65.3 µM | SK-OV-3 78.5 µM | SNB-19 97.7 µM | SNB-75 61.4 µM | SR 32.1 µM | T47D 34.2 µM | UACC-257 > 100 µM

CC(C)Sc1nc(C#N)cc2c1CCCC2
inactive: A498 37.1 µM | A549 37.1 µM | ACHN 40.6 µM | CAKI-1 > 100 µM | DU-145 > 100 µM | HCT-116 44.7 µM | IGROV-1 96.2 µM | MCF7 39.4 µM | OVCAR-3 30.3 µM | OVCAR-4 53.1 µM | PC-3 38.2 µM | SF-268 50.7 µM | SF-295 40.9 µM | SK-OV-3 72.9 µM | SNB-19 > 100 µM | SNB-75 > 100 µM | SR 20.7 µM | T47D 56.9 µM | UACC-257 39.9 µM

CCCCC/C=C1/CC(CO)(COC(=O)CC(C(C)C)C(C)C)OC1=O (stereo unspecified)
inactive: A498 13 µM | A549 11.1 µM | ACHN 11.4 µM | CAKI-1 10.7 µM | DU-145 13.4 µM | HCT-116 14.8 µM | IGROV-1 17.8 µM | MCF7 17.1 µM | OVCAR-3 17.7 µM | OVCAR-4 26.5 µM | PC-3 10.1 µM | SF-268 16.4 µM | SF-295 5.73 µM | SK-OV-3 18.9 µM | SNB-19 7.62 µM | SNB-75 10.3 µM | SR 16.6 µM | T47D 17.5 µM | UACC-257 21.4 µM
